The record followed here is patent publication US9452117B2 (priority 2011, dated 2016).

The subject of assay [1] is Human skeletal muscle cells. The class given is cell-based.
Assay [2] relates to Large^myd mice. Briefly: Body weight change and muscle weight of Large^myd mice. It counts as in vivo. The following applies: 40 mg/kg body weight daily, not on weekends, 3 months. The protocol: The body weight change and muscle weight of treated Large^myd mice was also evaluated. Large^myd mice (at age of 10 weeks, male:female=1:1) received Compound D2 (40 mg/kg body weight) daily. No treatment on weekends. […] The muscle weight gain for the TA and EDL muscles are summarized below.

Assay [3] relates to human skin cells. The class given is cell-based.

Structures are written as SMILES.

With `CCCC(CCC)CO[N+](=O)[O-]` [Compound D2, 2-propylpentyl nitrate], the entries for the “calcification (calcium-45 accumulation)” value in assay [1] and in assay [3] were “reduce calcification” and “significant reduction”, respectively. The compound also yielded an EDL muscle mass in assay [2] (control 0.015 ± 0.001) of 0.017 ± 0.001 gram. Moreover, in assay [2] (control 0.048 ± 0.004), the TA muscle mass came out at 0.054 ± 0.004 gram. The Body weight increase in assay [2] (control 2%) was 13%;.
